≈ marks a conversion by molar mass, not a printed value.
How the values were obtained:
[1] = system: Enterococcus hirae; experiment: Antibacterial activity against Enterococcus hirae ATCC 8043 was determined; assay type: functional
[2] = system: Escherichia coli; experiment: Antibacterial activity against Escherichia coli ATCC 25922 was determined; assay type: functional
[3] = system: Escherichia coli; experiment: Antibacterial activity against Escherichia coli NIHJ JC-2 was determined; assay type: functional
[4] = system: Enterobacter cloacae; experiment: Antibacterial activity against Enterobacter cloacae 963 was determined; assay type: functional
[5] = system: Klebsiella aerogenes; experiment: Antibacterial activity against Enterobacter aerogenes IFO 13048 was determined; assay type: functional
[6] = system: Klebsiella pneumoniae; experiment: Antibacterial activity against Klebsiella pneumoniae IFO 3317 was determined; assay type: functional
[7] = system: Moraxella catarrhalis; experiment: Antibacterial activity against M(B). catarrhalis AtCC 25238 was determined; assay type: functional
[8] = system: Micrococcus luteus; experiment: Antibacterial activity against Micrococcus luteus ATCC 9341 was determined; assay type: functional
[9] = system: Morganella morganii; experiment: Antibacterial activity against Morganella morganii IID 602 was determined; assay type: functional
[10] = system: Proteus vulgaris; experiment: Antibacterial activity against Proteus vulgaris HX-19 was determined; assay type: functional
[11] = system: Proteus mirabilis; experiment: Antibacterial activity against Proteus mirabilis IFO3849 was determined; assay type: functional
[12] = system: Pseudomonas aeruginosa; experiment: Antibacterial activity against Pseudomonas aeruginosa NCTC 10490 was determined; assay type: functional
[13] = system: Providencia rettgeri; experiment: Antibacterial activity against Providencia rettgeri IFO3850 was determined; assay type: functional
[14] = system: Staphylococcus aureus; experiment: Antibacterial activity against Staphylococcus aureus 209P-JC was determined; assay type: functional
[15] = system: Staphylococcus aureus; experiment: Antibacterial activity against Staphylococcus aureus ATCC 25923 was determined; assay type: functional
[16] = system: Serratia marcescens; experiment: Antibacterial activity against Serratia marcescens IID 618 was determined; assay type: functional
[17] = system: Staphylococcus epidermidis; experiment: Antibacterial activity against Staphylococcus epidermidis IID 866 was determined; assay type: functional
[18] = system: Staphylococcus aureus; experiment: Antibacterial activity against Staphylococcus aureus Smith was determined; assay type: functional
[19] = Evaluated for pharmacokinetic parameter urine recovery in rat at the dose 50 mg/kg (0-24 hr); assay type: ADME, organism-based; parameters: dose 50 mg/kg; settings: read-out: UR
[20] = Evaluated for pharmacokinetic parameter urine recovery in mouse at the dose 20 mg/kg (0-24 hr); assay type: ADME, organism-based; parameters: dose 20 mg/kg; settings: read-out: UR
[21] = Evaluated for pharmacokinetic parameter tmax in mouse at the dose 20 mg/kg was determined; assay type: ADME, organism-based; parameters: dose 20 mg/kg; settings: in vivo
[22] = Evaluated for pharmacokinetic parameter half-life in mouse at the dose 20 mg/kg; assay type: ADME, organism-based; parameters: dose 20 mg/kg; settings: in vivo
[23] = Evaluated for pharmacokinetic parameter half-life in rat at the dose 50 mg/kg; assay type: ADME, organism-based; parameters: dose 50 mg/kg; settings: in vivo
[24] = Evaluated for pharmacokinetic parameter area under curve in mouse at the dose 20 mg/kg (0-4 hr ); assay type: ADME, organism-based; parameters: time < 4 hr, dose 20 mg/kg; settings: in vivo
[25] = Evaluated for pharmacokinetic parameter Cmax in mouse at the dose 20 mg/kg; assay type: ADME, organism-based; parameters: dose 20 mg/kg; settings: in vivo
[26] = Evaluated for pharmacokinetic parameter tmax in rabbit at the dose 20 mg/kg; assay type: ADME, organism-based, Oryctolagus cuniculus; parameters: dose 20 mg/kg; settings: in vivo
[27] = Evaluated for pharmacokinetic parameter urine recovery in rabbit at the dose 20 mg/kg (0-24 hr); assay type: ADME, organism-based, Oryctolagus cuniculus; parameters: dose 20 mg/kg; settings: read-out: UR
[28] = Evaluated for pharmacokinetic parameter half-life in rabbit at the dose 20 mg/kg; assay type: ADME, organism-based, Oryctolagus cuniculus; parameters: dose 20 mg/kg; settings: in vivo
[29] = Evaluated for pharmacokinetic parameter area under curve in rat at the dose 50 mg/kg (0-8 hr ); assay type: ADME, organism-based; parameters: time < 8 hr, dose 50 mg/kg; settings: in vivo
[30] = Evaluated for pharmacokinetic parameter area under curve in rabbit at the dose 20 mg/kg (0-4 hr ); assay type: ADME, organism-based, Oryctolagus cuniculus; parameters: time < 4 hr, dose 20 mg/kg; settings: in vivo
[31] = Evaluated for pharmacokinetic parameter Cmax in rabbit at the dose 20 mg/kg; assay type: ADME, organism-based, Oryctolagus cuniculus; parameters: dose 20 mg/kg; settings: in vivo
[32] = Evaluated for pharmacokinetic parameter Cmax in rat at the dose 50 mg/kg; assay type: ADME, organism-based; parameters: dose 50 mg/kg; settings: in vivo
[33] = system: Haemophilus influenzae; experiment: Antibacterial activity against Haemophilus influenzae ATCC 19418 was determined; assay type: functional
[34] = system: Moraxella catarrhalis; experiment: Antibacterial activity against M(B). catarrhalis ATCC 25238 was determined; assay type: functional
[35] = system: Morganella morganii; experiment: Antibacterial activity against Morganella morganii IID 602; assay type: functional
[36] = system: Streptococcus pneumoniae; experiment: Antibacterial activity against Streptococcus pneumoniae IID 553 was determined; assay type: functional
[37] = Evaluated for pharmacokinetic parameter tmax in rat at the dose 50 mg/kg; assay type: ADME, organism-based; parameters: dose 50 mg/kg; settings: in vivo
[38] = Evaluated for pharmacokinetic parameter urine recovery in rat at the dose 50 mg/kg ( 0-24 hr ); assay type: ADME, organism-based; parameters: dose 50 mg/kg; settings: read-out: UR
[39] = Evaluated for pharmacokinetic parameter urine recovery in mouse at the dose 20 mg/kg ( 0-24 hr ); assay type: ADME, organism-based; parameters: dose 20 mg/kg; settings: read-out: UR
[40] = Evaluated for pharmacokinetic parameter tmax in mouse at the dose 20 mg/kg; assay type: ADME, organism-based; parameters: dose 20 mg/kg; settings: in vivo
[41] = Evaluated for pharmacokinetic parameter area under curve in mouse at the dose 20 mg/kg (0-4 hr); assay type: ADME, organism-based; parameters: time < 4 hr, dose 20 mg/kg; settings: in vivo
[42] = Evaluated for pharmacokinetic parameter urine recovery in rabbit at the dose 20 mg/kg ( 0-24 hr ); assay type: ADME, organism-based, Oryctolagus cuniculus; parameters: dose 20 mg/kg; settings: read-out: UR
[43] = Evaluated for pharmacokinetic parameter area under curve in rat at the dose 50 mg/kg (0-8 hr); assay type: ADME, organism-based; parameters: time < 8 hr, dose 50 mg/kg; settings: in vivo
[44] = system: Klebsiella pneumoniae; experiment: Antibacterial activity against Klebsiella pneumoniae IFO 331 was determined; assay type: functional
[45] = system: Micrococcus luteus; experiment: Antibacterial activity against Micrococcus […] determined; assay type: functional

CO/N=C(\C(=O)NC1C(=O)N2C(C(=O)O)=C(/C=C\c3csnn3)CSC12)c1csc(N)n1 (stereo unspecified)
MIC [1]: 100 µg/mL (≈ 203 µM) | MIC [2]: 0.39 µg/mL (≈ 0.79 µM) | MIC [3]: 0.39 µg/mL (≈ 0.79 µM) | MIC [4]: 0.39 µg/mL (≈ 0.79 µM) | MIC [5]: 0.78 µg/mL (≈ 1.58 µM) | MIC [6]: 0.012 µg/mL (≈ 0.0243 µM) | MIC [7]: 0.025 µg/mL (≈ 0.0507 µM) | MIC [8]: 0.05 µg/mL (≈ 0.101 µM) | MIC [9]: 0.1 µg/mL (≈ 0.203 µM) | MIC [10]: ≤ 0.006 µg/mL | MIC [11]: 0.1 µg/mL (≈ 0.203 µM) | MIC [12]: 50 µg/mL (≈ 101 µM) | MIC [13]: ≤ 0.006 µg/mL | MIC [14]: 0.78 µg/mL (≈ 1.58 µM) | MIC [15]: 0.78 µg/mL (≈ 1.58 µM) | MIC [16]: 0.39 µg/mL (≈ 0.79 µM) | MIC [17]: 0.2 µg/mL (≈ 0.405 µM) | MIC [18]: 0.39 µg/mL (≈ 0.79 µM)

Nc1nc(/C(=N/O)C(=O)NC2C(=O)N3C(C(=O)O)=C(/C=C\c4csnn4)CSC23)cs1 (stereo unspecified)
dose excreted [19]: 3.5% | dose excreted [20]: 1.9% | Tmax [21]: 2 h | half-life [22]: 0.7 h | half-life [23]: 4.4 h | AUC at 4 h [24]: 4700 ng·h/mL | Cmax [25]: 1500 ng/mL | Tmax [26]: 2 h | dose excreted [27]: 17.4% | half-life [28]: 2.2 h | AUC at 8 h [29]: 19800 ng·h/mL | AUC at 4 h [30]: 9700 ng·h/mL | Cmax [31]: 2000 ng/mL | Cmax [32]: 6000 ng/mL | MIC [1]: 12.5 µg/mL (≈ 26.1 µM) | MIC [2]: 0.1 µg/mL (≈ 0.209 µM) | MIC [3]: 0.1 µg/mL (≈ 0.209 µM) | MIC [4]: 0.2 µg/mL (≈ 0.417 µM) | MIC [5]: 0.2 µg/mL (≈ 0.417 µM) | MIC [33]: 0.05 µg/mL (≈ 0.104 µM) | MIC [6]: 0.012 µg/mL (≈ 0.025 µM) | MIC [34]: 0.05 µg/mL (≈ 0.104 µM) | MIC [8]: 0.012 µg/mL (≈ 0.025 µM) | MIC [35]: 0.025 µg/mL (≈ 0.0521 µM) | MIC [10]: 0.05 µg/mL (≈ 0.104 µM) | MIC [11]: 0.05 µg/mL (≈ 0.104 µM) | MIC [12]: > 100 µg/mL | MIC [13]: ≤ 0.006 µg/mL | MIC [36]: 0.05 µg/mL (≈ 0.104 µM) | MIC [14]: 0.1 µg/mL (≈ 0.209 µM) | MIC [15]: 0.39 µg/mL (≈ 0.813 µM) | MIC [16]: 0.39 µg/mL (≈ 0.813 µM) | MIC [17]: 0.05 µg/mL (≈ 0.104 µM) | Tmax [37]: 2 h | MIC [18]: 0.1 µg/mL (≈ 0.209 µM)

CO/N=C(\C(=O)NC1C(=O)N2C(C(=O)O)=C(/C=C\c3scnc3C)CSC12)c1csc(N)n1 (stereo unspecified)
MIC [1]: > 100 µg/mL | MIC [2]: 0.39 µg/mL (≈ 0.77 µM) | MIC [3]: 0.39 µg/mL (≈ 0.77 µM) | MIC [4]: 0.78 µg/mL (≈ 1.54 µM) | MIC [5]: 0.78 µg/mL (≈ 1.54 µM) | MIC [6]: 0.025 µg/mL (≈ 0.0493 µM) | MIC [34]: ≤ 0.006 µg/mL | MIC [8]: 0.025 µg/mL (≈ 0.0493 µM) | MIC [9]: 0.2 µg/mL (≈ 0.395 µM) | MIC [10]: ≤ 0.006 µg/mL | MIC [11]: 0.39 µg/mL (≈ 0.77 µM) | MIC [12]: 12.5 µg/mL (≈ 24.7 µM) | MIC [13]: 0.025 µg/mL (≈ 0.0493 µM) | MIC [14]: 0.78 µg/mL (≈ 1.54 µM) | MIC [15]: 0.78 µg/mL (≈ 1.54 µM) | MIC [16]: 0.39 µg/mL (≈ 0.77 µM) | MIC [17]: 0.39 µg/mL (≈ 0.77 µM) | MIC [18]: 0.78 µg/mL (≈ 1.54 µM)

C=CC1=C(C(=O)O)N2C(=O)[C@@H](NC(=O)/C(=N\O)c3csc(N)n3)[C@H]2SC1 [CEFDINIR]
dose excreted [38]: 13.2% | dose excreted [39]: 10% | Tmax [40]: 1 h | half-life [22]: 0.6 h | half-life [23]: 1.5 h | AUC at 4 h [41]: 10000 ng·h/mL | Cmax [25]: 2500 ng/mL | Tmax [26]: 1 h | dose excreted [42]: 64.2% | half-life [28]: 1.9 h | AUC at 8 h [43]: 13200 ng·h/mL | AUC at 4 h [30]: 64200 ng·h/mL | Cmax [31]: 5800 ng/mL | Cmax [32]: 6000 ng/mL | MIC [1]: 100 µg/mL (≈ 253 µM) | MIC [2]: 0.39 µg/mL (≈ 0.986 µM) | MIC [3]: 0.39 µg/mL (≈ 0.986 µM) | MIC [4]: 0.78 µg/mL (≈ 1.97 µM) | MIC [5]: 1.56 µg/mL (≈ 3.95 µM) | MIC [33]: 0.39 µg/mL (≈ 0.986 µM) | MIC [44]: 0.1 µg/mL (≈ 0.253 µM) | MIC [34]: 0.2 µg/mL (≈ 0.506 µM) | MIC [45]: 0.05 µg/mL (≈ 0.126 µM) | MIC [9]: 6.25 µg/mL (≈ 15.8 µM) | MIC [10]: 0.39 µg/mL (≈ 0.986 µM) | MIC [11]: 0.2 µg/mL (≈ 0.506 µM) | MIC [12]: > 100 µg/mL | MIC [13]: ≤ 0.006 µg/mL | MIC [36]: 0.1 µg/mL (≈ 0.253 µM) | MIC [14]: 0.39 µg/mL (≈ 0.986 µM) | MIC [15]: 0.39 µg/mL (≈ 0.986 µM) | MIC [16]: 1.56 µg/mL (≈ 3.95 µM) | MIC [17]: 0.1 µg/mL (≈ 0.253 µM) | Tmax [37]: 2 h | MIC [18]: 0.2 µg/mL (≈ 0.506 µM)

From ChEMBL document CHEMBL1127135, “Synthesis and biological properties of 3-[()-2-(1,2,3-Thiadiazolyl)ethenyl]-substituted cephalosporins and related compounds: new oral cephalosporins” (Bioorg Med Chem Lett, 1993)
